In US5658885A, “Amidino and guanidino substituted boronic acid inhibitors of trypsin-like enzymes” (The DuPont Merck Pharmaceutical Company, priority 1994, dated 1997):
Where a name gives a salt, the structure may show the parent alone.

What was measured:
Type in all cases: biochemical
human factor VIIa = biological target: T1, human factor VIIa (Homo sapiens, UniProt P08709); test: Inhibition of Factor VIIa hydrolysis of chromogenic substrate S2288 (Ki); settings: S2288, pH 7.6
T1 construct: 50 nM human factor VIIa (BiosPacific, Emeryville, Calif.); purchased BiosPacific, Emeryville, Calif
T1 sequence (P08709 213-466 limits assumed): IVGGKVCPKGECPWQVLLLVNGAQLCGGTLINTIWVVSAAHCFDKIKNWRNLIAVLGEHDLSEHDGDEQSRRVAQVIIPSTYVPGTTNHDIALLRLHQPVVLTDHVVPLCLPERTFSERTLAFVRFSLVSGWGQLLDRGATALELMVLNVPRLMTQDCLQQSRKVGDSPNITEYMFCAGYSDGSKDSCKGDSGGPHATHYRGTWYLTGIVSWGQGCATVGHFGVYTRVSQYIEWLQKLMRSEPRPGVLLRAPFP
T1 sequence (P08709 61-212 limits assumed): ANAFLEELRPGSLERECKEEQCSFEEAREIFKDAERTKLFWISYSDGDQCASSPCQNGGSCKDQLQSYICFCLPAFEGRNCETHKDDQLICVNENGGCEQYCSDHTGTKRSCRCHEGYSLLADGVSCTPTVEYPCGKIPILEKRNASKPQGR
Protocol: (§1) The effectiveness of compounds of the present invention as inhibitors of blood coagulation proteases was determined using purified human proteases and synthetic substrates following procedures similar to those described in Kettner et al. (1990).
(§2) For these assays, the rate of enzymatic (thrombin, Factor Xa, and Factor VIIa) hydrolysis of chromogenic substrates (S2238 (H-D-Phe-Pip-Arg-pNA), S2222, and S2288, respectively; Kabi Pharmacia, Franklin, Ohio) was measured both in the absence and presence of compounds of the present invention. […] A decrease in the rate of absorbance change at 405 nm in the presence of inhibitor is indicative of enzyme inhibition. The results of this assay are expressed as inhibitory constant, Ki.
(§3) Thrombin and Xa determinations were made in 0.10M sodium phosphate buffer, pH 7.5, containing 0.20M NaCl, and 0.5% PEG 8000. VIIa determinations were made in 0.05M tris buffer, pH 7.6, containing 0.10M NaCl, 4 mM CaCl2, and 0.1% bovine serum albumin.
(§4) Reactions were allowed to go for 30 minutes and the velocities (rate of absorbance change vs time) were measured in the time frame of 25-30 minutes. The following relationship was used to calculate Ki values. [formula] where: vo is the velocity of the control in the absence of inhibitor;
(§5) vs is the velocity in the presence of inhibitor;
(§6) I is the concentration of inhibitor;
(§7) Ki is the dissociation constant of the enzyme: inhibitor complex;
(§8) S is the concentration of substrate;
(§9) Km is the Michaelis constant.

human factor Xa = biological target: T2, human factor Xa (Homo sapiens, UniProt P00742); test: Inhibition of Factor Xa hydrolysis of chromogenic substrate S2222 (Ki); settings: S2222, pH 7.5
T2 construct: 0.2-0.5 nM human thrombin or human factor Xa; purchased Enzyme Research Laboratories, South Bend, Ind
T2 sequence (P00742 235-488 limits assumed): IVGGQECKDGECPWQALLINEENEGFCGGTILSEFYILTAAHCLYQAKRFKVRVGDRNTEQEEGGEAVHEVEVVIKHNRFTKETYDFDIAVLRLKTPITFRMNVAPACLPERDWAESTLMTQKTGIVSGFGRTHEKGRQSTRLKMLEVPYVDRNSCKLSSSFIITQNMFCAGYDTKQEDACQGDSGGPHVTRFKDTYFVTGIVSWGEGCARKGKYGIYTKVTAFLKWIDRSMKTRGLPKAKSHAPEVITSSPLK
T2 sequence (P00742 41-179 limits assumed): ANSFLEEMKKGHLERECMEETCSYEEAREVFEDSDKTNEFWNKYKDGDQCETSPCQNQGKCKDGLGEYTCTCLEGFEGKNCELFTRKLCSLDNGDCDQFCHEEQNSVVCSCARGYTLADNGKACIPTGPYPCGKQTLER
Protocol: as §1, §2, §3, §4, §5, §6, §7, §8, §9

human thrombin = biological target: T3, human thrombin (Homo sapiens, UniProt P00734); test: Inhibition of thrombin hydrolysis of chromogenic substrate S2238 (Ki); settings: S2238, pH 7.5
T3 construct: 0.2-0.5 nM human thrombin or human factor Xa; purchased Enzyme Research Laboratories, South Bend, Ind
Protocol: as §1, §2, §3, §4, §5, §6, §7, §8, §9

Row | Molecule | Ki (human factor VIIa) | Ki (human factor Xa) | Ki (human thrombin)
1 | CC1(C)C2CC3OB(C(Cc4cccc(C#N)c4)NC(=O)[C@@H]4CCCN4C(=O)[C@H](N)Cc4ccccn4)OC3(C)C1C2 (stereo partly drawn) [Example 37, H--(D)2-Pyridylalanine-Pro--boroPhe(m-CN)--C10 H16.HCl] | < 500 nM | < 50000 nM | < 500 nM
2 | Boc--(D)Thiazolylalanine-Pro--boroPhe(m-CN)--C10 H16 [Example 27] | – | < 500 nM | < 500 nM
3 | Boc--(D)Phe--Pro--boroGly[(CH2)3 --ONH2 ]--OH.HCl [Example 102] | < 500 nM | < 50000 nM | < 500 nM
4 | N=CNCCCC(NC(=O)C1CCCN1C(=O)CCc1ccccc1)B(O)O (stereo not drawn) [Example 48] | < 500 nM | < 50000 nM | < 500 nM
5 | CC1(C)C2CC3OB(C(Cc4cccc(C#N)c4)NC(=O)[C@@H]4CCCN4C(=O)[C@H](N)Cc4cccs4)OC3(C)C1C2 (stereo partly drawn) [Example 38, H--(D)2-Thienylalanine-Pro--boroPhe(m-CN)--C10 H16.HCl] | < 500 nM | < 50000 nM | < 500 nM
6 | CC1(C)C2CC3OB(C(CCCNC(N)=O)NC(=O)C4CCCN4C(=O)C(Cc4ccccc4)NS(=O)(=O)Cc4ccccc4)OC3(C)C1C2 (stereo not drawn) [Example 110, PhCH2 SO2 --(D)Phe--Pro--boroOrn(CONH2)--C10 H16] | – | < 50000 nM | < 500 nM
7 | CC1(C)C2CC3OB(C(Cc4cccc(C#N)c4)NC(=O)C4CCCN4C(=O)[C@@H](Cc4cccnc4)NS(C)(=O)=O)OC3(C)C1C2 (stereo partly drawn) [Example 32, Ms--(D)3-Pyridylalanine-Pro--boroPhe(m-CN)--C10 H16] | – | < 500 nM | < 500 nM
8 | COCCCC(NC(=O)C1CCCN1C(=O)C(Cc1ccccc1)NCC(=O)O)B1OC2CC3CC(C3(C)C)C2(C)O1 (stereo not drawn) [Example 140, HO2 CCH2 --(D)--Phe--Pro--boroGly[(CH2)3 --OCH3]--C10 H16] | < 50000 nM | – | < 500 nM
9 | CN(C)C(Cc1ccccc1)C(=O)N1CCCC1C(=O)NC(Cc1cccc(C#N)c1)B(O)O (single isomer, unassigned; isomer i) [Example 20, N,N-(CH3)2 --(D)Phe--Pro--boroPhe--(m-CN)--OH.HCl (ISOMER I)] | – | < 500 nM | < 500 nM
10 | CC(C)(C)OC(=O)N[C@H](Cc1cccnc1)C(=O)N1CCCC1C(=O)NC(Cc1cccc(C#N)c1)B1OC2CC3CC(C3(C)C)C2(C)O1 (stereo partly drawn) [Example 28, Boc--(D)3-Pyridylalanine-Pro--boroPhe--(m-CN)-C10 H16] | – | < 500 nM | < 500 nM
11 | CC(=O)NCCCCC(NC(=O)C1CCCN1C(=O)CCc1ccccc1)B1OC2CC3CC(C3(C)C)C2(C)O1 (stereo not drawn) [Example 136, Hydrocinnamoyl-ProboroGly[(CH2)4 --NH--Acetyl]C10 H16] | < 50000 nM | < 50000 nM | < 500 nM
12 | CC1(C)C2CC3OB(C(Cc4cccc(C#N)c4)NC(=O)C4CCCN4C(=O)C(N)Cc4cccnc4)OC3(C)C1C2 (stereo not drawn) [Example 30, H--(D)3-Pyridylalanine-Pro--boroPhe(m-CN)--C10 H16.HCl] | – | < 500 nM | < 500 nM
13 | CC(=O)N[C@H](Cc1ccccc1)C(=O)N1CCCC1C(=O)NC(CC1CCC(N)CC1)B1OC2CC3CC(C3(C)C)C2(C)O1 (stereo partly drawn) [Example 124] | – | < 50000 nM | < 500 nM
14 | CC(=O)N[C@H](Cc1ccccc1)C(=O)N1CCC[C@H]1C(=O)N[C@@H](Cc1cccc(C#N)c1)B(O)O [Example 23, Ac--(D)Phe--Pro--boroPhe--(m-CN)--OH.HCl] | < 500 nM | < 50000 nM | < 500 nM
15 | CC(C)(C)OC(=O)NC(Cc1cccs1)C(=O)N1CCCC1C(=O)NC(Cc1cccc(C#N)c1)B1OC2CC3CC(C3(C)C)C2(C)O1 (stereo not drawn) [Example 36, Boc--(D)2-Thienylalanine-Pro--boroPhe(m-CN)--C10 H16] | < 500 nM | < 500 nM | < 500 nM
16 | CC(C)(C)OC(=O)NC(Cc1ccccc1)C(=O)N1CCCC1C(=O)NC(CCCC#N)B1OC2CC3CC(C3(C)C)C2(C)O1 (stereo not drawn) [Example 122, Boc--(D)Phe--Pro--boroGly[(CH2)3 --CN]--C10 H16] | – | – | < 50000 nM
17 | H--(D)Phe--Pro--boroPhe(m-CN)--C10 H16.HCl [Example 18] | – | – | < 500 nM
18 | COCCCC(NC(=O)C1CCCN1C(=O)C(Cc1ccccc1)NC(=O)CNC(C)=O)B1OC2CC3CC(C3(C)C)C2(C)O1 (stereo not drawn) [Example 144, Ac--Gly--(D)--Phe--Pro--boroGly[(CH2)3 --OCH3]--C10 H16] | – | – | < 500 nM
19 | CC(C)(C)OC(=O)NC(Cc1ccccc1)C(=O)N1CCCC1C(=O)NC(Cc1cccc(C#N)c1)B1OC2CC3CC(C3(C)C)C2(C)O1 (stereo not drawn) [Example 17, Boc--(D)Phe--Pro--boroPhe(m-CN)--C10 H16] | – | – | < 500 nM
20 | CC1(C)C2CC3OB(C(CCCNC=N)NC(=O)c4ccc(-c5ccccc5)cc4)OC3(C)C1C2 (stereo not drawn) [Example 76, 4-(Phenyl)benzoyl-boroOrn(CH=NH)--C10 H16.HCl] | – | – | < 500 nM
21 | CN(CC(=O)NC(Cc1cccc(C#N)c1)B1OC2CC3CC(C3(C)C)C2(C)O1)C(=O)C(Cc1ccccc1)NC(=O)OC(C)(C)C (stereo not drawn) [Example 73, Boc--(D)Phe--Sar--boroPhe(m-CN)--C10 H16] | – | – | < 500 nM
22 | CC(=O)NC(Cc1ccccc1)C(=O)N1CCCC1C(=O)NC(CCCNC(N)=NC#N)B1OC2CC3CC(C3(C)C)C2(C)O1 (stereo not drawn) [Example 15, Ac--(D)Phe--Pro--boroArg(CN)--C10 H16.HCl] | – | – | < 500 nM
23 | COC(=O)C(Cc1cccc(C#N)c1)NC(=O)C1CCCN1C(=O)C(Cc1ccccc1)NC(=O)OC(C)(C)C [Example 129, Boc--(D)Phe--Pro--(R)Phe(mCN)--OMe] | – | – | < 500 nM
24 | Boc--(D)Phe--Pro--boroOrn(COCH3)--C10 H16 [Example 123] | – | – | < 500 nM

Second part, the molecule after the results:

Row | Ki (human factor VIIa) | Ki (human factor Xa) | Ki (human thrombin) | Molecule
25 | < 500 nM | < 500 nM | < 500 nM | CC(C)(C)OC(=O)N[C@H](Cc1ccccn1)C(=O)N1CCCC1C(=O)NC(Cc1cccc(C#N)c1)B1OC2CC3CC(C3(C)C)C2(C)O1 (stereo partly drawn) [Example 34, Boc--(D)2-Pyridylalanine-Pro--boroPhe(m-CN)--C10 H16]
26 | < 500 nM | < 500 nM | < 500 nM | CC1(C)C2CC3OB(C(Cc4cccc(C#N)c4)NC(=O)[C@@H]4CCCN4C(=O)[C@@H](Cc4ccccn4)NS(C)(=O)=O)OC3(C)C1C2 (stereo partly drawn) [Example 39, Ms--(D)2-Pyridylalanine-Pro--boroPhe(m-CN)--C10 H16]
27 | – | < 500 nM | < 500 nM | Ms--(D)Phe--Pro--boroPhe(m-CN)--OH.HCl [Example 24]
28 | – | < 500 nM | < 500 nM | CNC(Cc1ccccc1)C(=O)N1CCCC1C(=O)NC(Cc1cccc(C#N)c1)B1OC2CC3CC(C3(C)C)C2(C)O1 (stereo not drawn) [Example 25, N--CH3 --(D)Phe--Pro--boroPhe(m-CN)--C10 H16.HCl]
29 | < 500 nM | < 500 nM | < 500 nM | CC1(C)C2CC3OB(C(Cc4cccc(C#N)c4)NC(=O)C4CCCN4C(=O)C(Cc4cccs4)NS(C)(=O)=O)OC3(C)C1C2 (stereo not drawn) [Example 40, Ms--(D)2-Thienylalanine-Pro--boroPhe(m-CN)--C10 H16]
30 | < 50000 nM | < 50000 nM | < 500 nM | COCCCC(NC(=O)[C@@H]1CCCN1C(=O)[C@@H](Cc1ccccc1)N(C)C)B1OC2CC3CC(C3(C)C)C2(C)O1 (stereo partly drawn) [Example 141, N,N-dimethyl-(D)--Phe--Pro--boroGly[(CH2)3 --OCH3]--C10 H16]
31 | – | – | < 500 nM | CNC(=NC#N)NCCCC(NC(=O)C1CCCN1C(=O)C(Cc1ccccc1)NC(=O)OC(C)(C)C)B1OC2CC3CC(C3(C)C)C2(C)O1 (stereo not drawn) [Example 105, Boc--(D)Phe--Pro--boroOrn--[C(NCN)NHCH3]--C10 H16]
32 | – | – | < 500 nM | CC1(C)C2CC3OB(C(Cc4cccc(C#N)c4)NC(=O)C4CCCN4C(=O)CSc4ncccn4)OC3(C)C1C2 (stereo not drawn) [Example 41, (2-Pyrimidylthio)acetyl-Pro--boroPhe(m-CN)--C10 H16]
33 | – | – | < 500 nM | CC(=O)NC(Cc1ccccc1)C(=O)N1CCCC1C(=O)NC(Cc1ccc(CN)cc1)B1OC2CC3CC(C3(C)C)C2(C)O1 (stereo not drawn) [Example 21, Ac--(D)Phe--Pro--boroPhe(p-CH2 NH2)--C10 H16.BSA]
34 | – | – | > 500000 nM | Hydrocinnamoyl-Pro--boroIrg(CH2 CH=CH2)--OH.HBr [Example 49]
